The values that follow are results of earlier work, collected in publication PMC4493701, “Quantitative and qualitative analysis of the novel antitumor 1,3,4-oxadiazole derivative (GLB) and its metabolites using HPLC-UV and UPLC-QTOF-MS” (Scientific Reports, 2015).

For the series, the system named is human carcinoma cell lines including uterine cervix cancer cells, pulmonary adenocarcinoma cells, and prostate cancer cells (PC-3M). Details: method as in earlier work. Particulars: multiple human carcinoma cell lines; cited from earlier work.

With `CC(=O)N1N=C(c2ccc(Br)cc2)OC12C1OC(C)(C)OC1COC21COC(C)(C)O1` (stereo not shown) [GLB, Fructose-based 3-acetyl-2,3-dihydro-1,3,4-oxadiazole], the Effect on proliferation result is listed as “inhibited proliferation”.
